One experiment concerns SW480 (G12V). Put plainly: In vitro cell proliferation inhibition test (CellTiter-Glo Luminescent Cell Viability Assay). The experiment is classed as cell-based. As to conditions: SW480 cell line, Large intestine; Colon, KRAS (p.G12V); cells and compounds co-incubated 72 hours. In a few lines: (§1)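 Cells were seeded at 1000-5000/well and cultured overnight, then exposed to compound (top final 10 µM, ten 3-fold dilutions) for 72 h at 37°C, 5% CO2. Viability was read by CellTiter-Glo luminescence; IC50 was obtained from four-parameter fits of normalized signal.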

A further experiment has as its system AsPC-1 (G12D). The experiment is described as above. The experiment is classed as cell-based. The note with it: AsPC-1 cell line, Pancreas, KRAS (p.G12D); cells and compounds co-incubated 72 hours. Summed up: as §1

As for `CCn1c(-c2cc(C#CCN3CCC4(CC3)CN(C)C4)cnc2[C@H](C)OC)c2c3cc(ccc31)-c1csc(n1)C[C@H](NC(=O)[C@H]1C[C@@H]1C)C(=O)N1CCC[C@H](N1)C(=O)OCC(C)(C)C2` [Example 50, (1S,2S)-N-((6^3S,4S,Z)-1^1-ethyl-1^2-(2-((S)-1-methoxyethyl)-5-(3-(2-methyl-2,7-diazaspiro[3.5]nonan-7-yl)prop-1-yn-1-yl)pyridin-3-yl)-10,10-dimethyl-5,7-dioxo-6^1,6^2,6^3,6^4,6^5,6^6-hexahydro-1^1H-8-oxa-2(4,2)-thiazola-1(5,3)-indola-6(1,3)-pyridazinacycloundecaphane-4-yl)-2-methylcyclopropane-1-carboxamide], the IC50 (commonly the concentration that inhibits the measured activity by half) in the experiment on SW480 (G12V) is 15.2 nM; with AsPC-1 (G12D) it was 1.2 nM.

In the case of `CCn1c(-c2cc(C#CC3CN(C)CCS3(=N)=O)cnc2C(C)OC)c2c3cc(ccc31)-c1csc(n1)CC(NC(=O)C1CC1C)C(=O)N1CCCC(N1)C(=O)OCC(C)(C)C2` [Example 51, (1S,2S)-N-((6^3S,4S,Z)-1^1-ethyl-1^2-(5-(((2S)-1-imino-4-methyl-1-oxido-1λ^6-thiomorpholin-2-yl)ethynyl)-2-((S)-1-methoxyethyl)pyridin-3-yl)-10,10-dimethyl-5,7-dioxo-6^1,6^2,6^3,6^4,6^5,6^6-hexahydro-1^1H-8-oxa-2(4,2)-thiazola-1(5,3)-indola-6(1,3)-pyridazinacycloundecaphane-4-yl)-2-methylcyclopropane-1-carboxamide], the values for the IC50 in the experiment on SW480 (G12V) and in the experiment with AsPC-1 (G12D) were 5.4 nM and 4.5 nM, respectively.

For `CCn1c(-c2cc(C#CCN3CCN(C)CC3)cnc2[C@H](C)OC)c2c3cc(ccc31)-c1csc(n1)C[C@H](NC(=O)[C@H]1[C@H](C)[C@@H]1C)C(=O)N1CCC[C@H](N1)C(=O)OCC(C)(C)C2` [Example 52, (1r,2R,3S)-N-((6^3S,4S,Z)-1^1-ethyl-1^2-(2-((S)-1-methoxyethyl)-5-(3-(4-methylpiperazin-1-yl)prop-1-yn-1-yl)pyridin-3-yl)-10,10-dimethyl-5,7-dioxo-6^1,6^2,6^3,6^4,6^5,6^6-hexahydro-1^1H-8-oxa-2(4,2)-thiazola-1(5,3)-indola-6(1,3)-pyridazinacycloundecaphane-4-yl)-2,3-dimethylcyclopropane-1-carboxamide], the IC50 in the experiment with SW480 (G12V) stood at 0.3 nM; with AsPC-1 (G12D) it was 0.24 nM.

On to `CCn1c(-c2cc(C#CCN3CCOCC3)cnc2[C@H](C)OC)c2c3cc(ccc31)-c1csc(n1)C[C@H](NC(=O)C1CC1)C(=O)N1CCC[C@H](N1)C(=O)OCC(C)(C)C2` [Example 54, N-((6^3S,4S,Z)-1^1-ethyl-1^2-(2-((S)-1-methoxyethyl)-5-(3-morpholinoprop-1-yn-1-yl)pyridin-3-yl)-10,10-dimethyl-5,7-dioxo-6^1,6^2,6^3,6^4,6^5,6^6-hexahydro-1^1H-8-oxa-2(4,2)-thiazola-1(5,3)-indola-6(1,3)-pyridazinacycloundecaphane-4-yl)cyclopropanecarboxamide], for which the IC50 with SW480 (G12V) came out at 35 nM; in the experiment on AsPC-1 (G12D), 17.3 nM.

As for `CCn1c(-c2cc(C#CC3CCN(CCO)CC3)cnc2C(C)OC)c2c3cc(ccc31)-c1csc(n1)CC(NC(=O)C1CC1C)C(=O)N1CCCC(N1)C(=O)OCC(C)(C)C2` [Example 55, (1S,2S)-N-((6^3S,4S,Z)-1^1-ethyl-1^2-(5-((1-(2-hydroxyethyl)piperidin-4-yl)ethynyl)-2-((S)-1-methoxyethyl)pyridin-3-yl)-10,10-dimethyl-5,7-dioxo-6^1,6^2,6^3,6^4,6^5,6^6-hexahydro-1^1H-8-oxa-2(4,2)-thiazola-1(5,3)-indola-6(1,3)-pyridazinacycloundecaphane-4-yl)-2-methylcyclopropane-1-carboxamide], the IC50 in the experiment with SW480 (G12V) came to 23.3 nM; with AsPC-1 (G12D), 3 nM.

`CCn1c(-c2cc(C#Cc3cccc4c3ccn4C)cnc2[C@H](C)OC)c2c3cc(ccc31)-c1csc(n1)C[C@H](NC(=O)[C@H]1C[C@@H]1C)C(=O)N1CCC[C@H](N1)C(=O)OCC(C)(C)C2` [Example 56, (1S,2S)-N-((6^3S,4S,Z)-1^1-ethyl-1^2-(2-((S)-1-methoxyethyl)-5-((1-methyl-1H-indol-4-yl)ethynyl)pyridin-3-yl)-10,10-dimethyl-5,7-dioxo-6^1,6^2,6^3,6^4,6^5,6^6-hexahydro-1^1H-8-oxa-2(4,2)-thiazola-1(5,3)-indola-6(1,3)-pyridazinacycloundecaphane-4-yl)-2-methylcyclopropane-1-carboxamide]: the IC50 in the experiment with SW480 (G12V) worked out at 487 nM; in the experiment with AsPC-1 (G12D), 291 nM.

In the case of `CCn1c(-c2cc(C#CCN3CCS(=N)(=O)CC3)cnc2C(C)OC)c2c3cc(ccc31)-c1csc(n1)CC(NC(=O)C1CC1C)C(=O)N1CCCC(N1)C(=O)OCC(C)(C)C2` [Example 57, (1S,2S)-N-((6^3S,4S,Z)-1^1-ethyl-1^2-(5-(3-(1-imino-1-oxido-1l6-thiomorpholino)prop-1-yn-1-yl)-2-((S)-1-methoxyethyl)pyridin-3-yl)-10,10-dimethyl-5,7-dioxo-6^1,6^2,6^3,6^4,6^5,6^6-hexahydro-1^1H-8-oxa-2(4,2)-thiazola-1(5,3)-indola-6(1,3)-pyridazinacycloundecaphane-4-yl)-2-methylcyclopropane-1-carboxamide], the IC50 in the experiment with SW480 (G12V) is 2 nM; in the experiment on AsPC-1 (G12D) it was 1.9 nM.

On to `CCn1c(-c2cc(C#CCN(C)C)cnc2C(C)OC)c2c3cc(ccc31)-c1csc(n1)CC(NC(=O)C1C(C)C1C)C(=O)N1CCCC(N1)C(=O)OCC(C)(C)C2` [Example 58, (1r,2R,3S)-N-((6^3S,4S,Z)-1^2-(5-(3-(dimethylamino)prop-1-yn-1-yl)-2-((S)-1-methoxyethyl)pyridin-3-yl)-1^1-ethyl-10,10-dimethyl-5,7-dioxo-6^1,6^2,6^3,6^4,6^5,6^6-hexahydro-1^1H-8-oxa-2(4,2)-thiazola-1(5,3)-indola-6(1,3)-pyridazinacycloundecaphane-4-yl)-2,3-dimethylcyclopropane-1-carboxamide], for which the IC50 in the experiment with SW480 (G12V) came out at 0.24 nM; in the experiment on AsPC-1 (G12D), 0.7 nM.

Regarding `CCn1c(-c2cc(C#CCN3CCCCC3)cnc2[C@H](C)OC)c2c3cc(ccc31)-c1csc(n1)C[C@H](NC(=O)[C@H]1C[C@@H]1C)C(=O)N1CCC[C@H](N1)C(=O)OCC(C)(C)C2` [Example 59, (1S,2S)-N-((6^3S,4S,Z)-1^1-ethyl-1^2-(2-((S)-1-methoxyethyl)-5-(3-(piperidin-1-yl)prop-1-yn-1-yl)pyridin-3-yl)-10,10-dimethyl-5,7-dioxo-6^1,6^2,6^3,6^4,6^5,6^6-hexahydro-1^1H-8-oxa-2(4,2)-thiazola-1(5,3)-indola-6(1,3)-pyridazinacycloundecaphane-4-yl)-2-methylcyclopropane-1-carboxamide], the 50% inhibitory concentration (IC50) was 1.76 nM with SW480 (G12V) and 0.96 nM with AsPC-1 (G12D).

As to `CCn1c(-c2cc(C#CCN3CCN(C)CC3)cnc2[C@H](C)OC)c2c3cc(ccc31)-c1csc(n1)C[C@H](NC(=O)[C@H]1C[C@@H]1C)C(=O)N1CCC[C@H](N1)C(=O)OCC(C)(C)C2` [Example 60, (1S,2S)-N-((6^3S,4S,Z)-1^1-ethyl-1^2-(2-((S)-1-methoxyethyl)-5-(3-(4-methylpiperazin-1-yl)prop-1-yn-1-yl)pyridin-3-yl)-10,10-dimethyl-5,7-dioxo-6^1,6^2,6^3,6^4,6^5,6^6-hexahydro-1^1H-8-oxa-2(4,2)-thiazola-1(5,3)-indola-6(1,3)-pyridazinacycloundecaphane-4-yl)-2-methylcyclopropane-1-carboxamide], the IC50 in the experiment with SW480 (G12V) was determined as 1.55 nM; in the experiment on AsPC-1 (G12D), 1.71 nM.

On to “(1S,2S)-N-((6^3S,4S,Z)-1^1-ethyl-1^2-(2-((S)-1-methoxyethyl)-5-((6-methyl-5,6,7,8-tetrahydropyrido[4,3-d]pyrimidin-2-yl)ethynyl)pyridin-3-yl)-10,10-dimethyl-5,7-dioxo-6^1,6^2,6^3,6^4,6^5,6^6-hexahydro-1^1H-8-oxa-2(4,2)-thiazola-1(5,3)-indola-6(1,3)-pyridazinacycloundecaphane-4-yl)-2-methylcyclopropane-1-carboxamide [Example 44]”, for which the IC50 is 6.3 nM in the experiment with SW480 (G12V) and 16.8 nM in the experiment with AsPC-1 (G12D).

Take “(1S,2S)-N-((6^3S,4S,Z)-1^1-ethyl-1^2-(2-((S)-1-methoxyethyl)-5-(((S)-4-methyl-1,1-dioxidothiomorpholin-2-yl)ethynyl)pyridin-3-yl)-10,10-dimethyl-5,7-dioxo-6^1,6^2,6^3,6^4,6^5,6^6-hexahydro-1^1H-8-oxa-2(4,2)-thiazola-1(5,3)-indola-6(1,3)-pyridazinacycloundecaphane-4-yl)-2-methylcyclopropane-1-carboxamide [Example 45]”: the values for the IC50 in the experiment with SW480 (G12V) and in the experiment with AsPC-1 (G12D) were 7.4 nM and 5.3 nM, respectively.

With “(1S,2S)-N-((6^3S,4S,Z)-1^1-ethyl-1^2-(2-((S)-1-methoxyethyl)-5-(pyrimidin-5-ylethynyl)pyridin-3-yl)-10,10-dimethyl-5,7-dioxo-6^1,6^2,6^3,6^4,6^5,6^6-hexahydro-1^1H-8-oxa-2(4,2)-thiazola-1(5,3)-indola-6(1,3)-pyridazinacycloundecaphane-4-yl)-2-methylcyclopropane-1-carboxamide [Example 22]”, the IC50 in the experiment with SW480 (G12V) was 19.2 nM; with AsPC-1 (G12D), 6.5 nM.

“(1S,2S)-N-((6^3S,4S,Z)-1^1-ethyl-1^2-(5-((2-(ethylamino)pyrimidin-5-yl)ethynyl)-2-((S)-1-methoxyethyl)pyridin-3-yl)-10,10-dimethyl-5,7-dioxo-6^1,6^2,6^3,6^4,6^5,6^6-hexahydro-1^1H-8-oxa-2(4,2)-thiazola-1(5,3)-indola-6(1,3)-pyridazinacycloundecaphane-4-yl)-2-methylcyclopropane-1-carboxamide [Example 42]”: the IC50 in the experiment with SW480 (G12V) is 6.9 nM; in the experiment with AsPC-1 (G12D) it was 22.2 nM.

As to “(1S,2S)-N-((6^3S,4S,Z)-1^1-ethyl-1^2-(5-(((R)-4-(2-hydroxyethyl)morpholin-3-yl)ethynyl)-2-((S)-1-methoxyethyl)pyridin-3-yl)-10,10-dimethyl-5,7-dioxo-6^1,6^2,6^3,6^4,6^5,6^6-hexahydro-1^1H-8-oxa-2(4,2)-thiazola-1(5,3)-indola-6(1,3)-pyridazinacycloundecaphane-4-yl)-2-methylcyclopropane-1-carboxamide [Example 33]”, the IC50 was 6.5 nM with SW480 (G12V) and 2.9 nM in the experiment on AsPC-1 (G12D).

For the origin of these results see patent publication EP4582426A1, “PAN-KRAS INHIBITOR COMPOUND” (Adlai Nortye Biopharma Co., Ltd., priority 2022, dated 2024).
